ChEMBL document CHEMBL3885861, “Open TG-GATES”

Species: Rattus norvegicus
Assay: Open TG-GATES - Regimen: Single
Assay type: toxicity, organism-based, Sprague-Dawley
Set-up: regimen Single, gender Male, age 6 weeks
Settings: in vivo, po, 150 mg/kg, route gavage, dose level High; for APTT / Bas / Eos / Fbg / Hb / Ht / Lym / MCHC / MCV / Mono / Neu / PT / Plat / RBC / Ret / WBC: tissue Blood; for KIDNEY_L / KIDNEY_R / KIDNEY_TOTAL: tissue Kidney; for LIVER: tissue Liver; for ALP / ALT / AST / BUN / CRE / Ca / Cl / DBIL / GLC / IP / K / LDH / Na / PL / RALB / TBIL / TC / TG / TP / gamma-GTP: tissue Plasma

## C1CCC(C(CC2CCCCN2)C2CCCCC2)CC1 (centres undefined) [PERHEXILINE]
3 h
  TERMINAL_BW: 215.1 g
  APTT: 21.8 s
  Bas: 0%
  Eos: 0.8%
  Fbg: 336.6 mg/dL
  Hb: 13.3 g/dL
  Ht: 40.3%
  Lym: 71.2%
  MCHC: 33.1%
  MCV: 65.5 fL
  Mono: 1.6%
  Neu: 24.8%
  PT: 16 s
  Plat: 129.8 x10_4/uL
  RBC: 616 x10_4/ul
  Ret: 7.7%
  WBC: 64 x10_2/uL
  KIDNEY_L: 0.9 g
  KIDNEY_R: 1 g
  KIDNEY_TOTAL: 1.9 g
  LIVER: 9.3 g
  ALP: 1714.6 IU/L
  ALT: 57.2 IU/L
  AST: 80 IU/L
  BUN: 11 mg/dL
  CRE: 0.1 mg/dL
  Ca: 10.6 mg/dL
  Cl: 104.8 meq/L
  DBIL: 0.002 mg/dL
  GLC: 173.6 mg/dL
  IP: 9.4 mg/dL
  K: 3.8 meq/L
  LDH: 215.2 IU/L
  Na: 140.2 meq/L
  PL: 133.2 mg/dL
  RALB: 3.2 g/dL
  TBIL: 0.016 mg/dL
  TC: 73.2 mg/dL
  TG: 46.8 mg/dL
  TP: 5.8 g/dL
  gamma-GTP: 0.8 IU/L
6 h
  TERMINAL_BW: 213.5 g
  APTT: 22.8 s
  Bas: 0%
  Eos: 1%
  Fbg: 336.8 mg/dL
  Hb: 13.1 g/dL
  Ht: 39.1%
  Lym: 68.8%
  MCHC: 33.5%
  MCV: 62.8 fL
  Mono: 1.8%
  Neu: 27.2%
  PT: 15.2 s
  Plat: 142.9 x10_4/uL
  RBC: 622.4 x10_4/ul
  Ret: 7.9%
  WBC: 59.6 x10_2/uL
  KIDNEY_L: 1 g
  KIDNEY_R: 1 g
  KIDNEY_TOTAL: 1.9 g
  LIVER: 9.1 g
  ALP: 1591 IU/L
  ALT: 51.8 IU/L
  AST: 75.8 IU/L
  BUN: 10.6 mg/dL
  CRE: 0.1 mg/dL
  Ca: 10.6 mg/dL
  Cl: 106 meq/L
  DBIL: 0.002 mg/dL
  GLC: 172.4 mg/dL
  IP: 9.2 mg/dL
  K: 4.2 meq/L
  LDH: 238.8 IU/L
  Na: 140.2 meq/L
  PL: 148.6 mg/dL
  RALB: 3.2 g/dL
  TBIL: 0.018 mg/dL
  TC: 75 mg/dL
  TG: 82 mg/dL
  TP: 5.7 g/dL
  gamma-GTP: 1 IU/L
9 h
  TERMINAL_BW: 220.6 g
  APTT: 21.1 s
  Bas: 0%
  Eos: 1%
  Fbg: 326.4 mg/dL
  Hb: 13.2 g/dL
  Ht: 39.7%
  Lym: 66.8%
  MCHC: 33.2%
  MCV: 63.9 fL
  Mono: 1.6%
  Neu: 30%
  PT: 15.5 s
  Plat: 128.9 x10_4/uL
  RBC: 622.8 x10_4/ul
  Ret: 7.7%
  WBC: 64.2 x10_2/uL
  KIDNEY_L: 1.1 g
  KIDNEY_R: 1.1 g
  KIDNEY_TOTAL: 2.1 g
  LIVER: 9.7 g
  ALP: 1539.6 IU/L
  ALT: 39 IU/L
  AST: 66.6 IU/L
  BUN: 11.4 mg/dL
  CRE: 0.1 mg/dL
  Ca: 10.9 mg/dL
  Cl: 105.2 meq/L
  DBIL: 0.004 mg/dL
  GLC: 171.2 mg/dL
  IP: 9.6 mg/dL
  K: 4 meq/L
  LDH: 217.8 IU/L
  Na: 138.8 meq/L
  PL: 121 mg/dL
  RALB: 3 g/dL
  TBIL: 0.014 mg/dL
  TC: 62 mg/dL
  TG: 48.2 mg/dL
  TP: 5.6 g/dL
  gamma-GTP: 1 IU/L
24 h
  TERMINAL_BW: 208.6 g
  APTT: 21.2 s
  Bas: 0%
  Eos: 1%
  Fbg: 327.6 mg/dL
  Hb: 13.6 g/dL
  Ht: 40.4%
  Lym: 82%
  MCHC: 33.6%
  MCV: 62.7 fL
  Mono: 1.2%
  Neu: 15.4%
  PT: 16.1 s
  Plat: 132.8 x10_4/uL
  RBC: 645.6 x10_4/ul
  Ret: 6%
  WBC: 65.9 x10_2/uL
  KIDNEY_L: 0.9 g
  KIDNEY_R: 1 g
  KIDNEY_TOTAL: 1.9 g
  LIVER: 9.4 g
  ALP: 1840.2 IU/L
  ALT: 50 IU/L
  AST: 71.6 IU/L
  BUN: 15.4 mg/dL
  CRE: 0.1 mg/dL
  Ca: 10.7 mg/dL
  Cl: 106.8 meq/L
  DBIL: 0 mg/dL
  GLC: 170.2 mg/dL
  IP: 7.9 mg/dL
  K: 4.2 meq/L
  LDH: 256.2 IU/L
  Na: 141.8 meq/L
  PL: 149 mg/dL
  RALB: 3.2 g/dL
  TBIL: 0.012 mg/dL
  TC: 79.6 mg/dL
  TG: 78 mg/dL
  TP: 5.8 g/dL
  gamma-GTP: 1 IU/L
